Here are results for 44 molecules from BindingDB's records for doi:10.1016/j.ejmech.2019.02.016 (National Health Research Institutes, 2019).

A short description of the assay: Inhibition of NS5A in HCV genotype 1b infected in human HuH7 replicon cells assessed as reduction in subgenomic viral RNA replication treated for 2 days followed by compound washout and subsequent compound dosing measured after 1 day by SEAP reporter gene assay. A general note: Replicon systems follow genome replication, usually without infectious particles.

In general, EC50 refers to the midpoint of the concentration-response curve.

SMILES strings stand for the structures.

Turning to `O=C(N[C@H](C(=O)N1CCC[C@H]1c1ncc(-c2ccc(-c3ccc(-c4cnc([C@@H]5CCCN5C(=O)[C@H](NC(=O)N5CCOCC5)c5ccccc5)s4)cc3)cc2)s1)c1ccccc1)N1CCOCC1`, the EC50 came out at 1.1 nM.
In the case of `O=C(N[C@H](C(=O)N1CCC[C@H]1c1ncc(-c2ccc(-c3ccc(-c4cnc([C@@H]5CCCN5C(=O)[C@H](NC(=O)c5ccncc5)c5ccccc5)s4)cc3)cc2)s1)c1ccccc1)c1ccncc1` it was 0.37 nM; in that of `O=C(N[C@H](C(=O)N1CCC[C@H]1c1ncc(-c2ccc(-c3ccc(-c4cnc([C@@H]5CCCN5C(=O)[C@H](NC(=O)c5ccccn5)c5ccccc5)s4)cc3)cc2)s1)c1ccccc1)c1ccccn1`, 2640 nM; in that of `O=C(N[C@@H](C(=O)N1CCC[C@H]1c1ncc(-c2ccc(-c3ccc(-c4cnc([C@@H]5CCCN5C(=O)[C@H](NC(=O)c5ccco5)c5ccccc5)s4)cc3)cc2)s1)c1ccccc1)c1ccco1`, 0.07 nM.
To `CCCC(=O)N[C@H](C(=O)N1CCC[C@H]1c1ncc(-c2ccc(-c3ccc(-c4cnc([C@@H]5CCCN5C(=O)[C@H](NC(=O)CCC)c5ccccc5)s4)cc3)cc2)s1)c1ccccc1` belongs 0.77 nM; to `O=C(N[C@@H](C(=O)N1CCC[C@H]1c1ncc(-c2ccc(-c3ccc(-c4cnc([C@@H]5CCCN5C(=O)[C@H](NC(=O)C5CC5)C5CCCCC5)s4)cc3)cc2)s1)C1CCCCC1)C1CC1`, above 50000 nM.
In the case of `COC(=O)N[C@@H](C)C(=O)N1CCC[C@H]1c1ncc(-c2ccc(-c3ccc(-c4cnc([C@@H]5CCCN5C(=O)[C@H](C)NC(=O)OC)s4)cc3)cc2)s1` it was 159 nM; in that of `O=C(N[C@@H](C(=O)N1CCC[C@H]1c1ncc(-c2ccc(-c3ccc(-c4cnc([C@@H]5CCCN5C(=O)[C@H](NC(=O)c5cccnc5)c5ccccc5)s4)cc3)cc2)s1)c1ccccc1)c1cccnc1`, 0.13 nM; in that of `O=C(N[C@H](C(=O)N1CCC[C@H]1c1ncc(-c2ccc(-c3ccc(-c4cnc([C@@H]5CCCN5C(=O)[C@H](NC(=O)N5CCCC5)c5ccccc5)s4)cc3)cc2)s1)c1ccccc1)N1CCCC1`, 1.3 nM.
As for `O=C(N[C@@H](C(=O)N1CCC[C@H]1c1ncc(-c2ccc(-c3ccc(-c4cnc([C@@H]5CCCN5C(=O)[C@H](NC(=O)C5CCCCC5)c5ccccc5)s4)cc3)cc2)s1)c1ccccc1)C1CCCCC1`, the concentration giving a half-maximal response (EC50) is 0.25 nM.
To `CCCCC(=O)N[C@H](C(=O)N1CCC[C@H]1c1ncc(-c2ccc(-c3ccc(-c4cnc([C@@H]5CCCN5C(=O)[C@H](NC(=O)CCCC)c5ccccc5)s4)cc3)cc2)s1)c1ccccc1` belongs 7.6 nM.
For the molecule `COC(=O)N[C@H](C(=O)N1CCC[C@H]1c1ncc(-c2ccc(-c3ccc(-c4cnc([C@@H]5CCCN5C(=O)[C@@H](NC(=O)OC)c5ccccc5)s4)cc3)cc2)s1)c1ccccc1`, the EC50 turned out to be 41 nM.
To `O=C(N[C@H](C(=O)N1CCC[C@H]1c1ncc(-c2ccc(-c3ccc(-c4cnc([C@@H]5CCCN5C(=O)[C@H](NC(=O)c5ccoc5)c5ccccc5)s4)cc3)cc2)s1)c1ccccc1)c1ccoc1` belongs 0.63 nM.
In the case of `COC(=O)N[C@H](C(=O)N1CCC[C@H]1c1ncc(-c2ccc(-c3ccc(-c4cnc([C@@H]5CCCN5C(=O)[C@@H](NC(=O)OC)C(C)C)s4)cc3)cc2)s1)C(C)C` it was 56 nM; in that of `O=C(N[C@@H](C(=O)N1CCC[C@H]1c1ncc(-c2ccc(-c3ccc(-c4cnc([C@@H]5CCCN5C(=O)[C@H](NC(=O)C5CC5)c5ccccc5)s4)cc3)cc2)s1)c1ccccc1)C1CC1`, 0.003 nM; in that of `CN1CCN(CCC(=O)N[C@@H](C(=O)N2CCC[C@H]2c2ncc(-c3ccc(-c4ccc(-c5cnc([C@@H]6CCCN6C(=O)[C@H](NC(=O)CCN6CCN(C)CC6)c6ccccc6)s5)cc4)cc3)s2)c2ccccc2)CC1`, 7.2 nM.
To `COC(=O)N[C@H](C(=O)N1CCC[C@H]1c1ncc(-c2ccc(-c3ccc(-c4cnc([C@@H]5CCCN5C(=O)[C@@H](NC(=O)OC)C(C)(C)C)s4)cc3)cc2)s1)C(C)(C)C` belongs 471 nM; to `O=C(CCN1CCCC1)N[C@@H](C(=O)N1CCC[C@H]1c1ncc(-c2ccc(-c3ccc(-c4cnc([C@@H]5CCCN5C(=O)[C@H](NC(=O)CCN5CCCC5)c5ccccc5)s4)cc3)cc2)s1)c1ccccc1`, 4 nM; to `CCN(CC)CCC(=O)N[C@@H](C(=O)N1CCC[C@H]1c1ncc(-c2ccc(-c3ccc(-c4cnc([C@@H]5CCCN5C(=O)[C@H](NC(=O)CCN(CC)CC)c5ccccc5)s4)cc3)cc2)s1)c1ccccc1`, 1 nM.
In the case of `COC(=O)N[C@@H](C(=O)N1CCC[C@H]1c1ncc(-c2ccc(-c3ccc(-c4cnc([C@@H]5CCCN5C(=O)[C@H](NC(=O)OC)c5ccccc5)s4)cc3)cc2)s1)c1ccccc1`, the concentration for a half-maximal effect (EC50) was determined as 0.19 nM.
In the case of `O=C(CCN1CCCC1)N[C@H](C(=O)N1CCC[C@H]1c1ncc(-c2ccc(-c3ccc(-c4cnc([C@@H]5CCCN5C(=O)[C@H](NC(=O)CCN5CCCC5)c5ccccc5)s4)cc3)cc2)s1)c1ccccc1` it was 23 nM.
In the case of `O=C(CCN1CCCCC1)N[C@H](C(=O)N1CCC[C@H]1c1ncc(-c2ccc(-c3ccc(-c4cnc([C@@H]5CCCN5C(=O)[C@H](NC(=O)CCN5CCCCC5)c5ccccc5)s4)cc3)cc2)s1)c1ccccc1` it was 16 nM.
To `O=C(CCn1cccc1)N[C@H](C(=O)N1CCC[C@H]1c1ncc(-c2ccc(-c3ccc(-c4cnc([C@@H]5CCCN5C(=O)[C@H](NC(=O)CCn5cccc5)c5ccccc5)s4)cc3)cc2)s1)c1ccccc1` belongs 0.23 nM.
For `CC(C)(C)[C@@H](NC(=O)C1CC1)C(=O)N1CCC[C@H]1c1ncc(-c2ccc(-c3ccc(-c4cnc([C@@H]5CCCN5C(=O)[C@H](NC(=O)C5CC5)C(C)(C)C)s4)cc3)cc2)s1`, the EC50 is 1600 nM.
In the case of `CC(C)(C)C(=O)N[C@H](C(=O)N1CCC[C@H]1c1ncc(-c2ccc(-c3ccc(-c4cnc([C@@H]5CCCN5C(=O)[C@H](NC(=O)C(C)(C)C)c5ccccc5)s4)cc3)cc2)s1)c1ccccc1` it was 52 nM.
For the molecule `O=C(N[C@@H](C(=O)N1CCC[C@H]1c1ncc(-c2ccc(-c3ccc(-c4cnc([C@@H]5CCCN5C(=O)[C@H](NC(=O)N5CCCC5)c5ccccc5)s4)cc3)cc2)s1)c1ccccc1)N1CCCC1`, the EC50 amounted to 0.035 nM.
In the case of `CCC[C@@H](NC(=O)C1CC1)C(=O)N1CCC[C@H]1c1ncc(-c2ccc(-c3ccc(-c4cnc([C@@H]5CCCN5C(=O)[C@@H](CCC)NC(=O)C5CC5)s4)cc3)cc2)s1` it was 92 nM; in that of `CC(=O)N[C@H](C(=O)N1CCC[C@H]1c1ncc(-c2ccc(-c3ccc(-c4cnc([C@@H]5CCCN5C(=O)[C@H](NC(C)=O)c5ccccc5)s4)cc3)cc2)s1)c1ccccc1`, 0.59 nM; in that of `CCOC(=O)N[C@H](C(=O)N1CCC[C@H]1c1ncc(-c2ccc(-c3ccc(-c4cnc([C@@H]5CCCN5C(=O)[C@@H](NC(=O)OCC)C(C)C)s4)cc3)cc2)s1)C(C)C`, 327 nM.
In the case of `O=C(N[C@H](C(=O)N1CCC[C@H]1c1ncc(-c2ccc(-c3ccc(-c4cnc([C@@H]5CCCN5C(=O)[C@H](NC(=O)c5cccnc5)c5ccccc5)s4)cc3)cc2)s1)c1ccccc1)c1cccnc1` it was 2.1 nM.
In the case of `CCC[C@H](NC(=O)OC)C(=O)N1CCC[C@H]1c1ncc(-c2ccc(-c3ccc(-c4cnc([C@@H]5CCCN5C(=O)[C@H](CCC)NC(=O)OC)s4)cc3)cc2)s1` it was 123 nM.
Consider `O=C(N[C@@H](C(=O)N1CCC[C@H]1c1ncc(-c2ccc(-c3ccc(-c4cnc([C@@H]5CCCN5C(=O)[C@H](NC(=O)c5ccncc5)c5ccccc5)s4)cc3)cc2)s1)c1ccccc1)c1ccncc1`, for which the EC50 is 0.011 nM.
To `O=C(N[C@@H](C(=O)N1CCC[C@H]1c1ncc(-c2ccc(-c3ccc(-c4cnc([C@@H]5CCCN5C(=O)[C@H](NC(=O)C5CCCC5)c5ccccc5)s4)cc3)cc2)s1)c1ccccc1)C1CCCC1` belongs 0.006 nM; to `O=C(CCN1CCOCC1)N[C@H](C(=O)N1CCC[C@H]1c1ncc(-c2ccc(-c3ccc(-c4cnc([C@@H]5CCCN5C(=O)[C@H](NC(=O)CCN5CCOCC5)c5ccccc5)s4)cc3)cc2)s1)c1ccccc1`, 2.6 nM.
To `O=C(N[C@@H](C(=O)N1CCC[C@H]1c1ncc(-c2ccc(-c3ccc(-c4cnc([C@@H]5CCCN5C(=O)[C@H](NC(=O)C5CCC5)c5ccccc5)s4)cc3)cc2)s1)c1ccccc1)C1CCC1` belongs 0.007 nM; to `CC(C)[C@H](NC(=O)Oc1ccccc1)C(=O)N1CCC[C@H]1c1ncc(-c2ccc(-c3ccc(-c4cnc([C@@H]5CCCN5C(=O)[C@@H](NC(=O)Oc5ccccc5)C(C)C)s4)cc3)cc2)s1`, 2820 nM; to `CCCC(=O)N[C@@H](C(=O)N1CCC[C@H]1c1ncc(-c2ccc(-c3ccc(-c4cnc([C@@H]5CCCN5C(=O)[C@H](NC(=O)CCC)c5ccccc5)s4)cc3)cc2)s1)c1ccccc1`, 0.013 nM.
Consider `O=C(N[C@@H](C(=O)N1CCC[C@H]1c1ncc(-c2ccc(-c3ccc(-c4cnc([C@@H]5CCCN5C(=O)[C@H](NC(=O)c5cccs5)c5ccccc5)s4)cc3)cc2)s1)c1ccccc1)c1cccs1`, for which the EC50 amounted to 1.4 nM.
In the case of `CN(C)CCC(=O)N[C@H](C(=O)N1CCC[C@H]1c1ncc(-c2ccc(-c3ccc(-c4cnc([C@@H]5CCCN5C(=O)[C@H](NC(=O)CCN(C)C)c5ccccc5)s4)cc3)cc2)s1)c1ccccc1` it was 6.9 nM.
In the case of `O=C(CCN1CCOCC1)N[C@@H](C(=O)N1CCC[C@H]1c1ncc(-c2ccc(-c3ccc(-c4cnc([C@@H]5CCCN5C(=O)[C@H](NC(=O)CCN5CCOCC5)c5ccccc5)s4)cc3)cc2)s1)c1ccccc1` it was 0.2 nM; in that of `COC(=O)N[C@@H](CC(C)C)C(=O)N1CCC[C@H]1c1ncc(-c2ccc(-c3ccc(-c4cnc([C@@H]5CCCN5C(=O)[C@H](CC(C)C)NC(=O)OC)s4)cc3)cc2)s1`, 179 nM.
Regarding `COC(=O)N[C@H](C(=O)N1CCC[C@H]1c1ncc(-c2ccc(-c3ccc(-c4cnc([C@@H]5CCCN5C(=O)[C@H](NC(=O)OC)c5ccccc5)s4)cc3)cc2)s1)c1ccccc1`, the EC50 came out at 108 nM.
Turning to `CN(C)CCC(=O)N[C@@H](C(=O)N1CCC[C@H]1c1ncc(-c2ccc(-c3ccc(-c4cnc([C@@H]5CCCN5C(=O)[C@H](NC(=O)CCN(C)C)c5ccccc5)s4)cc3)cc2)s1)c1ccccc1`, the 50% effective concentration (EC50) was found to be 2.5 nM.
In the case of `O=C(N[C@H](C(=O)N1CCC[C@H]1c1ncc(-c2ccc(-c3ccc(-c4cnc([C@@H]5CCCN5C(=O)[C@H](NC(=O)C5CCCCC5)c5ccccc5)s4)cc3)cc2)s1)c1ccccc1)C1CCCCC1` it was 40 nM.
